Active and inactive are the calls of the source. The calls are words filed in the database; no cut-off is given here.
Legend:
[1] = target: T1, Muscarinic acetylcholine receptor M5 (Homo sapiens, UniProt P08912); assay: (§1) Antagonist activity at human muscarinic M5 receptor expressed in CHO cells in the presence of acetylcholine by calcium mobilisation assay; format: cell-based
T1 sequence (P08912 whole entry): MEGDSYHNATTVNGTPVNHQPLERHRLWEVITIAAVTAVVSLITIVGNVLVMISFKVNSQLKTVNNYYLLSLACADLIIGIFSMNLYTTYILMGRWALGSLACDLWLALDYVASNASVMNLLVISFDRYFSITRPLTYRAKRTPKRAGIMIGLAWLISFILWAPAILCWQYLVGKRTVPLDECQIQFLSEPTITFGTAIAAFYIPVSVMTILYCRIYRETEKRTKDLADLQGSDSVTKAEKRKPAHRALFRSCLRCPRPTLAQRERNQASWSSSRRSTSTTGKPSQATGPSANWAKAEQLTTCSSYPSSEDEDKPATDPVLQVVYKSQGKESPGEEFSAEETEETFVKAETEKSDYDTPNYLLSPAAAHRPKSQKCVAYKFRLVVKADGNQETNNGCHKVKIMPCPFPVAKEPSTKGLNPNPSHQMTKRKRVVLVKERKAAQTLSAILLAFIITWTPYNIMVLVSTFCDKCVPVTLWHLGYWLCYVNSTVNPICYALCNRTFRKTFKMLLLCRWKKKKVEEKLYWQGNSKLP

[2] = target: T2, Muscarinic acetylcholine receptor M5 (Homo sapiens) (UniProt P08912); assay: Antagonist activity at human muscarinic M5 receptor expressed in CHO cells assessed as minimal acetylcholine response by calcium mobilisation assay relative to control; format: cell-based; set-up: concentration or dose not given beside the values
T2 sequence (whole entry): T1 sequence (P08912 whole entry)

[3] = Intrinsic clearance in human; format: ADME
[4] = Intrinsic clearance in rat; format: ADME
[5] = Lipophilicity, logD of the compound at pH 7.4; format: physicochemical; conditions: buffer
[6] = target: T2, Muscarinic acetylcholine receptor M5 (Homo sapiens); assay: as §1; format: cell-based
[7] = target: T2, Muscarinic acetylcholine receptor M5 (Homo sapiens); assay: Potency index, ratio of VU6027831 IC50 to test compound IC50 for antagonist activity at human M5 muscarinic receptor
[8] = target: T3, Muscarinic acetylcholine receptor M1 (Homo sapiens, UniProt P11229); assay: Antagonist activity at human muscarinic M1 receptor expressed in CHO cells in the presence of acetylcholine by calcium mobilisation assay; format: cell-based
T3 sequence (P11229 whole entry): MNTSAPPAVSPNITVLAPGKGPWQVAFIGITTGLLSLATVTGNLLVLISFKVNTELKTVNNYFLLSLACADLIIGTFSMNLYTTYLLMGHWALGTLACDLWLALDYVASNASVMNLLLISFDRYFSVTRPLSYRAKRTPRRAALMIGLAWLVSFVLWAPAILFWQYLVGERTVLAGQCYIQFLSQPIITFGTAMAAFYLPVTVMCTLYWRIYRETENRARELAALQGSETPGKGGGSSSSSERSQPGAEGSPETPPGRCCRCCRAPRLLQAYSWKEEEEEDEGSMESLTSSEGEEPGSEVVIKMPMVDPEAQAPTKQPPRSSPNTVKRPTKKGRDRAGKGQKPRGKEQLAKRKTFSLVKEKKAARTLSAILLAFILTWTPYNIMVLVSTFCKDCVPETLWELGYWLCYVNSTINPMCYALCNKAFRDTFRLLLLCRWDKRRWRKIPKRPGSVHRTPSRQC

[9] = Apparent permeability in MDCK-MDR1 cells; format: ADME, cell-based, Canis lupus familiaris; conditions: dog
[10] = Unbound fraction in human plasma; format: ADME, cell-free
[11] = target: T4, Muscarinic acetylcholine receptor M1 (Homo sapiens) (UniProt P11229); assay: Antagonist activity at human muscarinic M1 receptor expressed in CHO cells assessed as minimal acetylcholine response by calcium mobilisation assay relative to control; format: cell-based; set-up: scale not given: the % may be the effect or the level left; conditions: filed as antagonist
T4 sequence (whole entry): T3 sequence (P11229 whole entry)

P-glycoprotein = assay: Efflux ratio of permeability in MDCK-MDR1 cells expressing P-glycoprotein; format: ADME, cell-based, Canis lupus familiaris; conditions: dog
[12] = Unbound fraction in rat plasma; format: ADME, cell-free
[13] = Unbound fraction in rat brain; format: ADME, tissue-based
[14] = target: T5, Muscarinic acetylcholine receptor M5 (Rattus norvegicus) (UniProt P08911); assay: Antagonist activity at rat muscarinic M5 receptor expressed in CHO cells assessed as minimal acetylcholine response by calcium mobilisation assay relative to control; format: cell-based; set-up: scale not given: the % may be the effect or the level left; conditions: filed as antagonist
T5 sequence (whole entry): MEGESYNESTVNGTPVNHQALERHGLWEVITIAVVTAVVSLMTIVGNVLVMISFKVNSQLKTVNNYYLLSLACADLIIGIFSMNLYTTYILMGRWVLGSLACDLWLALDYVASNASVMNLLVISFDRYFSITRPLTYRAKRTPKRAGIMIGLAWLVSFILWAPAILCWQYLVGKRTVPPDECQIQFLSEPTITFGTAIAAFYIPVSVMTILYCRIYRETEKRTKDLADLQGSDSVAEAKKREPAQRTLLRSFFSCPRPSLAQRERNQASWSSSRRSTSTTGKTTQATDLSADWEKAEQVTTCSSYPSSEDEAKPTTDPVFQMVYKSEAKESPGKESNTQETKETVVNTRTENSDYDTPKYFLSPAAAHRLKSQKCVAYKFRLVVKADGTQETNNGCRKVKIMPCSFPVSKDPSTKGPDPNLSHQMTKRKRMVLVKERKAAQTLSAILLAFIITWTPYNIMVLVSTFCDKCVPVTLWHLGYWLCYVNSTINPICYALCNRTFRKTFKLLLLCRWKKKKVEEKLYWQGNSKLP

[15] = target: T6, Muscarinic acetylcholine receptor M5 (Rattus norvegicus, UniProt P08911); assay: Antagonist activity at rat muscarinic M5 receptor expressed in CHO cells in the presence of acetylcholine by calcium mobilisation assay; format: cell-based
T6 sequence (P08911 whole entry): T5 sequence (whole entry)

[16] = target: T7, Muscarinic acetylcholine receptor M4 (Homo sapiens, UniProt P08173); assay: Antagonist activity at human muscarinic M4 receptor expressed in CHO cells in the presence of acetylcholine by calcium mobilisation assay; format: cell-based
T7 sequence (P08173 whole entry): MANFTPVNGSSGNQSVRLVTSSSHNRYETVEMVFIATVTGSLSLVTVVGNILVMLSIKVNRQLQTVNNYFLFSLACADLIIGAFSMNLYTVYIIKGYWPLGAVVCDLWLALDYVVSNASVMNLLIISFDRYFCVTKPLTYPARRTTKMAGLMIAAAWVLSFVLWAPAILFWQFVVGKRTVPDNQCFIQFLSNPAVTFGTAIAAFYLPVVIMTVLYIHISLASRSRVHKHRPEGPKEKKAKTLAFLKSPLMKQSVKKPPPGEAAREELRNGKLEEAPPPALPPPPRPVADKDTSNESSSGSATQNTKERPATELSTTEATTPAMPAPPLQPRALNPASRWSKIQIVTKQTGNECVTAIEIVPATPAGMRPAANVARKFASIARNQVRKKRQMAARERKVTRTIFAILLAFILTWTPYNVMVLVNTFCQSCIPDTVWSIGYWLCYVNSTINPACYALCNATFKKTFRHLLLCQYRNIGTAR

[17] = target: T5, Muscarinic acetylcholine receptor M5 (Rattus norvegicus); assay: Antagonist activity at rat muscarinic M5 receptor assessed as minimal acetylcholine response relative to control; set-up: scale not given: the % may be the effect or the level left; conditions: filed as antagonist

Structure (SMILES)	IC50 [1] [nM]	Activity ([2]; filed as antagonist) [%]	CLint scaled [3] [mL/min/kg]	CLint scaled [4] [mL/min/kg]	logD [5]	other results
O=C(Nc1ccc2scnc2c1)[C@@H]1CCN(S(=O)(=O)c2ccc3c(c2)CCO3)C1	21	2	50.6	356	2.53	Activity ([2]; filed as antagonist, tested as the 2H-labelled form): 2%
O=C(Nc1ccc2scnc2c1)C12CC1CN(S(=O)(=O)c1ccc3c(c1)CCO3)C2 (racemic)	270	2	115	396	2.88	
O=C(Nc1ccc2scnc2c1)[C@@H]1CCN(S(=O)(=O)c2cccnc2)C1					1.65	Activity [6]: inactive
O=C(Nc1ccc2scnc2c1)[C@H]1CN(S(=O)(=O)c2ccc3c(c2)CCO3)C[C@@H]1C(F)(F)F					3.65	Activity [6]: inactive
Cc1nn(C)cc1S(=O)(=O)N1CC[C@@H](C(=O)Nc2ccc3scnc3c2)C1		6			1.62	
O=C(Nc1ccc2scnc2c1)C1CCN(S(=O)(=O)c2ccc3c(c2)CCO3)C1 (stereo unspecified)	47	2	72	252		Ratio IC50 [7]: 2
C[C@H]1CN(S(=O)(=O)c2ccc3c(c2)CCO3)C[C@@H]1C(=O)Nc1ccc2scnc2c1	87	2	5	51	2.94	IC50 [8]: > 10 µM; Papp [9]: 1.75 10^-6 cm/s; Fu [10]: 0.03; Activity [11]: 8%; efflux ratio (P-glycoprotein): 32.3; Fu [12]: 0.01; fraction unbound [13]: 0.05; Activity [14]: 2%; IC50 [15]: 190 nM; IC50 [16]: > 10 µM
C[C@@H]1CN(S(=O)(=O)c2ccc3c(c2)CCO3)C[C@@H]1C(=O)Nc1ccc2scnc2c1	35	3	202	769	2.88	
O=C(Nc1ccc2scnc2c1)[C@@H]1CCN(S(=O)(=O)c2ccc3ncccc3c2)C1		3	42	191	1.99	
O=C(Nc1ccc2scnc2c1)C1CCN(S(=O)(=O)c2ccc3c(c2)CCO3)CC1						Activity [17]: 3%
O=C(Nc1ccc2scnc2c1)[C@@H]1CCN(S(=O)(=O)c2ccc3ncsc3c2)C1		2	33	51	2.04	Fu [10]: 0.12; Fu [12]: 0.01; fraction unbound [13]: 0.08; Activity [14]: 4%; IC50 [15]: 550 nM
[2H]C1([2H])Oc2ccc(S(=O)(=O)N3CC[C@@H](C(=O)Nc4ccc5scnc5c4)C3)cc2C1([2H])[2H]			50	168	2.45	
Cc1ccc(S(=O)(=O)N2CC[C@@H](C(=O)Nc3ccc4scnc4c3)C2)cn1	> 10000	41			1.85	
O=C(Nc1ccc2scnc2c1)C1CN(S(=O)(=O)c2ccc3c(c2)CCO3)C1		2	61	301		
O=C(Nc1ccc2scnc2c1)[C@H]1CCN(S(=O)(=O)c2ccc3c(c2)CCO3)C1	440	3	64	201	2.51	
O=C(Nc1ccc2scnc2c1)[C@@H]1CCN(S(=O)(=O)c2ccc3c(c2)CCC3)C1		31			3.54	
Cn1cc(S(=O)(=O)N2CC[C@@H](C(=O)Nc3ccc4scnc4c3)C2)c(C(F)(F)F)n1	> 10000				2.62	Activity [2]: 59%
O=C(Nc1ccc2scnc2c1)[C@@H]1CCN(S(=O)(=O)c2ccc3c(c2)OCO3)C1		3	30	267	2.43	
O=C(Nc1ccc2scnc2c1)[C@@H]1CCN(S(=O)(=O)c2ccc(Cl)nc2)C1					2.41	Activity [6]: inactive
